The source made the active and inactive calls. The rule behind the calls is not given here.
Key:
[1] = target: Ribosomal protein S6 kinase beta-1 (Homo sapiens) (UniProt P23443); assay: Inhibition of human RPS6KB1 at 0.1 uM relative to control
[2] = target: Serine/threonine-protein kinase Sgk1 (Homo sapiens) (UniProt O00141); assay: Inhibition of human SGK1 at 0.1 uM relative to control
[3] = target: Tyrosine-protein kinase Fyn (Homo sapiens) (UniProt P06241); assay: Inhibition of human FYN at 0.1 uM relative to control
[4] = target: Tyrosine-protein kinase receptor TYRO3 (Homo sapiens) (UniProt Q06418); assay: Inhibition of human TYRO3 at 0.1 uM relative to control
[5] = system: Receptor-type tyrosine-protein kinase FLT3 (Homo sapiens), P36888 [UNDEFINED MUTATION]; conditions: MV4-11
Description: Inhibition of FLT3 ITD homozygous mutant in human MV4-11 cells assessed as cell growth inhibition after 72 hrs by MTS assay

[6] = target: Insulin-like growth factor 1 receptor (Homo sapiens) (UniProt P08069); assay: Inhibition of human IGF1R at 0.1 uM relative to control
[7] = target: Receptor tyrosine-protein kinase erbB-2 (Homo sapiens) (UniProt P04626); assay: Inhibition of human HER2 at 0.1 uM relative to control
[8] = system: Tyrosine-protein kinase ABL1 (Homo sapiens), P00519 [T315I]; assay: Inhibition of human ABL1 T315I mutant at 0.1 uM relative to control
[9] = target: Platelet-derived growth factor receptor alpha (Homo sapiens) (UniProt P16234); assay: Inhibition of human PDGFRalpha at 0.1 uM relative to control
[10] = target: Glycogen synthase kinase-3 beta (Homo sapiens) (UniProt P49841); assay: Inhibition of human GSK3B at 0.1 uM relative to control
[11] = target: Serine/threonine-protein kinase Nek1 (Homo sapiens) (UniProt Q96PY6); assay: Inhibition of human NEK1 at 0.1 uM relative to control
[12] = target: Vascular endothelial growth factor receptor 3 (Homo sapiens) (UniProt P35916); assay: Inhibition of human FLT4 at 0.1 uM relative to control
[13] = target: Dual specificity protein kinase CLK1 (Homo sapiens) (UniProt P49759); assay: Inhibition of human CLK1 at 0.1 uM relative to control
[14] = target: Tyrosine-protein kinase JAK1 (Homo sapiens) (UniProt P23458); assay: Inhibition of human JAK1 at 0.1 uM relative to control
[15] = target: CDK2/Cyclin A2 (Homo sapiens) (UniProt P24941+P20248); assay: Inhibition of human CDK2/cyclin A at 0.1 uM relative to control; type: protein-complex assay
[16] = target: Tyrosine-protein kinase Lck (Homo sapiens) (UniProt P06239); assay: Inhibition of human LCK at 0.1 uM relative to control
[17] = target: High affinity nerve growth factor receptor (Homo sapiens) (UniProt P04629); assay: Inhibition of human NTRK1 at 0.1 uM relative to control
[18] = target: Glycogen synthase kinase-3 alpha (Homo sapiens) (UniProt P49840); assay: Inhibition of human GSK3A at 0.1 uM relative to control
[19] = target: Interleukin-1 receptor-associated kinase 4 (Homo sapiens) (UniProt Q9NWZ3); assay: Inhibition of human IRAK4 at 0.1 uM relative to control
[20] = target: Ribosomal protein S6 kinase alpha-2 (Homo sapiens) (UniProt Q15349); assay: Inhibition of human RSK3 at 0.1 uM relative to control
[21] = target: Dual specificity protein kinase CLK2 (Homo sapiens) (UniProt P49760); assay: Inhibition of human CLK2 at 0.1 uM relative to control
[22] = system: Receptor-type tyrosine-protein kinase FLT3 (Homo sapiens), P36888 [D835Y]; assay: Inhibition of human FLT3 D835Y mutant at 0.1 uM relative to control
MV4-11 = assay: Antitumor activity against human MV4-11 cells xenografted in nude mouse assessed as tumor regression at 25 mg/kg, po qd administered on day 8 to 12 measured during 48 days post last dose; type: functional, organism-based
Mus musculus = assay: Toxicity in nude mouse allografted with mouse 32D cells expressing FLT3 ITD D835Y mutant at 10 mg/kg/day, po administered 5 days on/2 days off schedule for 4 weeks measured daily during compound dosing; type: organism-based; conditions: in vivo
[23] = system: Platelet-derived growth factor receptor alpha (Homo sapiens), P16234 [V561D]; assay: Inhibition of human PDGFRA V561D mutant at 0.1 uM relative to control
[24] = system: Platelet-derived growth factor receptor alpha (Homo sapiens), P16234 [T674I]; assay: Inhibition of human PDGFRA T674I mutant at 0.1 uM relative to control
[25] = target: RAC-alpha serine/threonine-protein kinase (Homo sapiens) (UniProt P31749); assay: Inhibition of human AKT1 at 0.1 uM relative to control
[26] = target: Proto-oncogene tyrosine-protein kinase Src (Homo sapiens) (UniProt P12931); assay: Inhibition of human SRC at 0.1 uM relative to control
[27] = system: Platelet-derived growth factor receptor alpha (Homo sapiens), P16234 [D842V]; assay: Inhibition of human PDGFRA D842V mutant at 0.1 uM relative to control
[28] = target: Mitogen-activated protein kinase 8 (Homo sapiens) (UniProt P45983); assay: Inhibition of human MAPK8 at 0.1 uM relative to control
[29] = target: Tyrosine-protein kinase BTK (Homo sapiens) (UniProt Q06187); assay: Inhibition of human BTK at 0.1 uM relative to control
[30] = target: Tyrosine-protein kinase Yes (Homo sapiens) (UniProt P07947); assay: Inhibition of human YES1 at 0.1 uM relative to control
[31] = system: Receptor-type tyrosine-protein kinase FLT3 (Homo sapiens), P36888 [D835Y]

Chain of Glycogen synthase kinase-3 alpha (Homo sapiens) (P49840 2-483 limits assumed): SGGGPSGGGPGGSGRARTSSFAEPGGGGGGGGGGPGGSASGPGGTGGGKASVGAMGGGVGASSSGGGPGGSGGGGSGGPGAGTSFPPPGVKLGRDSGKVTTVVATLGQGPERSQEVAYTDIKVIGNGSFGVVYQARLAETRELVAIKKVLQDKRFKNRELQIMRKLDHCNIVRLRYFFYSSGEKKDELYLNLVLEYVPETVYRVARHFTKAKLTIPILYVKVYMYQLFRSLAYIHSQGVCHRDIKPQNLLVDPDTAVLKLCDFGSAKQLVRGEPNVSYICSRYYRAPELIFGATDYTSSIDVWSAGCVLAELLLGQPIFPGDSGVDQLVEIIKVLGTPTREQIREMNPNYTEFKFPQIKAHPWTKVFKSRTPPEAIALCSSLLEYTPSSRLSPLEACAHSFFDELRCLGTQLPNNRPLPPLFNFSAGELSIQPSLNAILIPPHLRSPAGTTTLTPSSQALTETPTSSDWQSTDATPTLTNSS
Chain of Serine/threonine-protein kinase Sgk1 (Homo sapiens) (O00141 whole entry): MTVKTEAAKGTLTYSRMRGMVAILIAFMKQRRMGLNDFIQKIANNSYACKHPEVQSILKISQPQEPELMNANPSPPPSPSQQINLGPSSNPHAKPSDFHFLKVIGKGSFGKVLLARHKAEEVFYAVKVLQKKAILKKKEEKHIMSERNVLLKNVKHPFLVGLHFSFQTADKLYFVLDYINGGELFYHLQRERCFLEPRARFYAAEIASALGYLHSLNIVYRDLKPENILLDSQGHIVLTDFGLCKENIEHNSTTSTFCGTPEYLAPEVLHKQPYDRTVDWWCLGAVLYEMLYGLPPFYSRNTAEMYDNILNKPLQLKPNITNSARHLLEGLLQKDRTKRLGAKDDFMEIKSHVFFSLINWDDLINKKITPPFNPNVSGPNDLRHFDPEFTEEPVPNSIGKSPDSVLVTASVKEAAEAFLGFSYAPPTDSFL
Chain of Tyrosine-protein kinase Lck (Homo sapiens) (P06239 2-509 limits assumed): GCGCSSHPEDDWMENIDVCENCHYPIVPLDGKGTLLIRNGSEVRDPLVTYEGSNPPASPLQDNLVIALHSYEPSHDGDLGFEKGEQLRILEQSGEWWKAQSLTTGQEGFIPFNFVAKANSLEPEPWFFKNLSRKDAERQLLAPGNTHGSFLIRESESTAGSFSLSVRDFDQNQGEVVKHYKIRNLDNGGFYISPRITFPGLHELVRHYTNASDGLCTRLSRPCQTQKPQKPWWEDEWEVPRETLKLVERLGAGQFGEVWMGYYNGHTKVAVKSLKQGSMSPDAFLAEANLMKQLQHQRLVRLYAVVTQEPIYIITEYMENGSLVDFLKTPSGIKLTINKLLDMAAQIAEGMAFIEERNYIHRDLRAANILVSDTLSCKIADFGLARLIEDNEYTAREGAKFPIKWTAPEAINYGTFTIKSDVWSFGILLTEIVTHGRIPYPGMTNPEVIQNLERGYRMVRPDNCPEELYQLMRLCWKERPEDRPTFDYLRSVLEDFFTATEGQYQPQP
Chain of Interleukin-1 receptor-associated kinase 4 (Homo sapiens) (Q9NWZ3 whole entry): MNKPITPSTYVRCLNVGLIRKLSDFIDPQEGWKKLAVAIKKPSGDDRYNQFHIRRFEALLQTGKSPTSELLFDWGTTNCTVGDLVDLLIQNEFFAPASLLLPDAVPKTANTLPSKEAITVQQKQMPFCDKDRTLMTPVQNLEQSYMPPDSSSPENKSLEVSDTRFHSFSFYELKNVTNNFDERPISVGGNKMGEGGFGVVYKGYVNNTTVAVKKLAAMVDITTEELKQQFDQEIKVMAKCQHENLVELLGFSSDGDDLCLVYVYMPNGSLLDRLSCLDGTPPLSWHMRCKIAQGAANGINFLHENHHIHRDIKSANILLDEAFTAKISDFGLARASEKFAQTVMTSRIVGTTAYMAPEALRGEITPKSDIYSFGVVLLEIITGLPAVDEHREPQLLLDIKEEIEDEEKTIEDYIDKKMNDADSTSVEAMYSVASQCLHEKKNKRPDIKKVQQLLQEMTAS
Chain of Platelet-derived growth factor receptor alpha (Homo sapiens) (P16234 whole entry): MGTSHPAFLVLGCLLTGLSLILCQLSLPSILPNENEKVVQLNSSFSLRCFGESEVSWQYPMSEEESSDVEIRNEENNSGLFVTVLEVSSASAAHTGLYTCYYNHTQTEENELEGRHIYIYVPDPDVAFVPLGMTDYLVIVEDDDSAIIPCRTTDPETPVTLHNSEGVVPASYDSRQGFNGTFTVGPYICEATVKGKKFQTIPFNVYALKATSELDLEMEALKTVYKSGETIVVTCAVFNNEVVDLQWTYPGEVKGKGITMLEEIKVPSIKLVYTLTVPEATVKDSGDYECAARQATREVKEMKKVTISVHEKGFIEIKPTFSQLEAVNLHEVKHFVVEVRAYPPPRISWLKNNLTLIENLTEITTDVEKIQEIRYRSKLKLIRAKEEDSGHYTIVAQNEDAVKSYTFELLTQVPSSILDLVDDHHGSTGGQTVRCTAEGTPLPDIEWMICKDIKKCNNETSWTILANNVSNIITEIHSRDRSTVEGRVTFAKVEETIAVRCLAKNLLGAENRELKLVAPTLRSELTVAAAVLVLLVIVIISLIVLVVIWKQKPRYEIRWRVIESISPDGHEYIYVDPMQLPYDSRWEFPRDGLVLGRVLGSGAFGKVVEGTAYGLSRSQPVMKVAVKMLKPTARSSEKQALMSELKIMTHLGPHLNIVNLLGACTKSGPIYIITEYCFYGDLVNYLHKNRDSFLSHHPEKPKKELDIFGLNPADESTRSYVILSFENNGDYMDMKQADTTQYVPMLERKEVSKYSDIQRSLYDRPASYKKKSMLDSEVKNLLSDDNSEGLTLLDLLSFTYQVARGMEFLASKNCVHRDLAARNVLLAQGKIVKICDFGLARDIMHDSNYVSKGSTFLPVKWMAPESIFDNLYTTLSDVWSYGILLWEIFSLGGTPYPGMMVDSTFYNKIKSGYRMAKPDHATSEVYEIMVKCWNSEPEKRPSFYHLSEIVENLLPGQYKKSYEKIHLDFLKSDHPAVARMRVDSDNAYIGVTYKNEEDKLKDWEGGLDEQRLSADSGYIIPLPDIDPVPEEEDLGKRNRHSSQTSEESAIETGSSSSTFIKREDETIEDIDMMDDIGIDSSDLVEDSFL
Chain of RAC-alpha serine/threonine-protein kinase (Homo sapiens) (P31749 whole entry): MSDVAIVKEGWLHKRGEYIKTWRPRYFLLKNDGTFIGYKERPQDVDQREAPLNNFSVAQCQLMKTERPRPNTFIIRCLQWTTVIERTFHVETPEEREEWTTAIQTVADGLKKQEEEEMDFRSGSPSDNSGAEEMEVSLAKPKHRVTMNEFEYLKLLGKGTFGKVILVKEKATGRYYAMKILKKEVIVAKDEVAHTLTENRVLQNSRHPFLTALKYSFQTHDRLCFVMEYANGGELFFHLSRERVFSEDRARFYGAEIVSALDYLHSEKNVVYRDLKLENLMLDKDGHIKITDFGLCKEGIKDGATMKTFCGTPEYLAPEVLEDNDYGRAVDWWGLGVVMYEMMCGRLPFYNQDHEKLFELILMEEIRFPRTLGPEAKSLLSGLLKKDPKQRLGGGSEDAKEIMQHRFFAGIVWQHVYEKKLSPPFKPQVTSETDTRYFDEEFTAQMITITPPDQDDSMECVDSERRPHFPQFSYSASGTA
Chain of Tyrosine-protein kinase Yes (Homo sapiens) (P07947 2-543 limits assumed): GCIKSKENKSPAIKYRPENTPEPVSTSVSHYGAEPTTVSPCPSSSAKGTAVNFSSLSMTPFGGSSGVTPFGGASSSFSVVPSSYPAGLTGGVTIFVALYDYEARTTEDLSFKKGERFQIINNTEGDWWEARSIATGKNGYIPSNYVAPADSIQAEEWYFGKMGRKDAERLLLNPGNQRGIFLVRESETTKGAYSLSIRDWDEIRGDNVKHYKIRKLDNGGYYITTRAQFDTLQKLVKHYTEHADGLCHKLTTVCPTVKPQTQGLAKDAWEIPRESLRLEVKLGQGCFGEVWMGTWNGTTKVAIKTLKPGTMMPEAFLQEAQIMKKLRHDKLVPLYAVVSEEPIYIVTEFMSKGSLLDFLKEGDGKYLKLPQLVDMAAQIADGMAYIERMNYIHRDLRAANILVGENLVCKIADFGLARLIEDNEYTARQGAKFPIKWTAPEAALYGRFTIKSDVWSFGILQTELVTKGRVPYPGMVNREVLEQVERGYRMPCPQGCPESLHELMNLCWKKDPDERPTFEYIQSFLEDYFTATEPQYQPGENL
Chain of Dual specificity protein kinase CLK1 (Homo sapiens) (P49759 whole entry, looked up): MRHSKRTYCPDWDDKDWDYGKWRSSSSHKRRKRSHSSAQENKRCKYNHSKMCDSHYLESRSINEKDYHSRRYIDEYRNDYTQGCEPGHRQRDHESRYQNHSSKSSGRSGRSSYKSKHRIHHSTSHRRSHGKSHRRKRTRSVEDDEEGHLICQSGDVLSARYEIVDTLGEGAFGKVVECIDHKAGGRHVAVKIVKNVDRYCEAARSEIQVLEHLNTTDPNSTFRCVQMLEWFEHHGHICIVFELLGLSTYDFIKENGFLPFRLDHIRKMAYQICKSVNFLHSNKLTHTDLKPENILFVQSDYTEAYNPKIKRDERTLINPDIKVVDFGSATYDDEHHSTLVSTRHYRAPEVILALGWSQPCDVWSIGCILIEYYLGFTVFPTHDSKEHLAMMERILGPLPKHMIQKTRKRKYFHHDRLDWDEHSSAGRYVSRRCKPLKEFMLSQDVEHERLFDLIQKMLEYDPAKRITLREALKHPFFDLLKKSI
Chain of Glycogen synthase kinase-3 beta (Homo sapiens) (P49841 whole entry, looked up): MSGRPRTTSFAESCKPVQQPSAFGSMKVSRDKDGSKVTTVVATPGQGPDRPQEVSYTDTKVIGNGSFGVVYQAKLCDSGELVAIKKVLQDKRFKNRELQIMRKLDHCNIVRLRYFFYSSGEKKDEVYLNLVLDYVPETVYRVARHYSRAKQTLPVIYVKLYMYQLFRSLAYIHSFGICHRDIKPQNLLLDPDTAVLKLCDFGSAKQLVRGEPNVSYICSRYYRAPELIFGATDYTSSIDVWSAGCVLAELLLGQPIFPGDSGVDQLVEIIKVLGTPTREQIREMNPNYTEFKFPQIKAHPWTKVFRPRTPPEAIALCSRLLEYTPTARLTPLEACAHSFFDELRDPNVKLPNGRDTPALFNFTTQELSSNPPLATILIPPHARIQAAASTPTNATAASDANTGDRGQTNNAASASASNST

CCc1cc(NC(=O)Nc2ccc(-c3cnc(Nc4cc(N5CCN(CC)CC5)nc(C)n4)s3)cc2)no1
inhibition [1]: 22% | inhibition [2]: 2% | inhibition [3]: 46% | inhibition [4]: 28% | GI50 [5]: 1 nM | inhibition [6]: 16% | inhibition [7]: 0% | inhibition [8]: 51% | inhibition [9]: 98% | inhibition [10]: 44% | inhibition [11]: 23% | inhibition [12]: 80% | inhibition [13]: 5% | inhibition [14]: -8% | inhibition [15]: 4% | inhibition [16]: 92% | inhibition [17]: 82% | inhibition [18]: 2% | inhibition [19]: 61% | inhibition [20]: 7% | inhibition [21]: -7% | inhibition [22]: 87% | Activity (MV4-11): Active | Activity (Mus musculus): Non-toxic | inhibition [23]: 63% | inhibition [24]: 46% | inhibition [25]: 0% | inhibition [26]: 93% | inhibition [27]: 21% | inhibition [28]: 15% | inhibition [29]: 46% | inhibition [30]: 72% | GI50 [31]: 6 nM

Reference: ChEMBL document CHEMBL3593229, “Identification of a potent 5-phenyl-thiazol-2-ylamine-based inhibitor of FLT3 with activity against drug resistance-conferring point mutations” (Eur J Med Chem, 2015)
